The results in this text go back to ChEMBL document CHEMBL4007451, “The 2014 Philip S. Portoghese Medicinal Chemistry Lectureship: The "Phenylalkylaminome" with a Focus on Selected Drugs of Abuse” (J Med Chem, 2017).

Assay [1] is described as follows: Activity at NET in rat synaptosomes assessed as release of [3H]NE after 30 mins by liquid scintillation counting method. The assay is classed as subcellular.
Assay [2] deals with T1, Sodium-dependent dopamine transporter (Rattus norvegicus, UniProt P23977). The experiment in a line: Activity at DAT in rat synaptosomes assessed as release of [3H]DA after 5 mins by liquid scintillation counting method. It counts as subcellular.
T1 sequence (P23977 whole entry): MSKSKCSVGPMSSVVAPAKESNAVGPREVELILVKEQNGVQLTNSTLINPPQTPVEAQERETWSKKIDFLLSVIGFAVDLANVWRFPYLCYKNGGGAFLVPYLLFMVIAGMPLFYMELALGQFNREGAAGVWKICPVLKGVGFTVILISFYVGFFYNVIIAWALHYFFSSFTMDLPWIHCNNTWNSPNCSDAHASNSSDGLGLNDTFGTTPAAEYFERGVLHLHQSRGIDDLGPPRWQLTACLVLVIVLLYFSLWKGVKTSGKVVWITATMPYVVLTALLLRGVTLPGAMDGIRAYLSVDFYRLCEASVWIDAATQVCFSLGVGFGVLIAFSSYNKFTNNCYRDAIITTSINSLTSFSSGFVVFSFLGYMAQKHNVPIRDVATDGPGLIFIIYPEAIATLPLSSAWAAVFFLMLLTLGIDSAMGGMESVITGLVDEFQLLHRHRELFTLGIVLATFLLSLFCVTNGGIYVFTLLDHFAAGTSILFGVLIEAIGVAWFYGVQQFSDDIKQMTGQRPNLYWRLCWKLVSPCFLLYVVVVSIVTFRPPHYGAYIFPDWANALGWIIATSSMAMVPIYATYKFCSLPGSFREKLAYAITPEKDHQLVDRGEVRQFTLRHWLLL
Assay [3] addresses Sodium-dependent serotonin transporter (Rattus norvegicus, UniProt P31652). Nature of the assay: Activity at SERT in rat synaptosomes assessed as release of [3H]HT after 5 mins by liquid scintillation counting method. It counts as subcellular.
Assay [4] concerns the target T2, 5-hydroxytryptamine receptor 2A (Rattus norvegicus, UniProt P14842). Nature of the assay: Displacement of [3H]ketanserin from 5HT2A in Sprague-Dawley rat frontal cortex membranes measured after 15 mins by scintillation counting method. Details: species or system Membrane. (In general: In a radioligand displacement assay an active substance lowers the binding of a labelled ligand.)

In assay [5] the target is T3, Alpha-2B adrenergic receptor (Homo sapiens, UniProt P18089).
T3 sequence (P18089 whole entry): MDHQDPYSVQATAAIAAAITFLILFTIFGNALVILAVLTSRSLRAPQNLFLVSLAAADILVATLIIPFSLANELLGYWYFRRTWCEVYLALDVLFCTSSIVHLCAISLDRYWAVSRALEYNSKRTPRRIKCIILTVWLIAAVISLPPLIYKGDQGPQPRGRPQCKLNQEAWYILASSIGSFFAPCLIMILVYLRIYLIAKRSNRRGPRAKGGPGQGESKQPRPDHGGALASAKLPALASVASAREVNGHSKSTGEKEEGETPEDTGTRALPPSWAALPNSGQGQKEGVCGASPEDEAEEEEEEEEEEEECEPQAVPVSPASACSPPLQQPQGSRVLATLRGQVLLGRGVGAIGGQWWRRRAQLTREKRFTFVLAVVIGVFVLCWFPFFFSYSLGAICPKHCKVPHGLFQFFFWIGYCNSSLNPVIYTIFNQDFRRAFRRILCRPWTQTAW
Nature of the assay: Binding affinity to alpha-2B receptor (unknown origin).

For assay [6], the target named is T4, Alpha-2A adrenergic receptor (Homo sapiens, UniProt P08913).
T4 sequence (P08913 whole entry): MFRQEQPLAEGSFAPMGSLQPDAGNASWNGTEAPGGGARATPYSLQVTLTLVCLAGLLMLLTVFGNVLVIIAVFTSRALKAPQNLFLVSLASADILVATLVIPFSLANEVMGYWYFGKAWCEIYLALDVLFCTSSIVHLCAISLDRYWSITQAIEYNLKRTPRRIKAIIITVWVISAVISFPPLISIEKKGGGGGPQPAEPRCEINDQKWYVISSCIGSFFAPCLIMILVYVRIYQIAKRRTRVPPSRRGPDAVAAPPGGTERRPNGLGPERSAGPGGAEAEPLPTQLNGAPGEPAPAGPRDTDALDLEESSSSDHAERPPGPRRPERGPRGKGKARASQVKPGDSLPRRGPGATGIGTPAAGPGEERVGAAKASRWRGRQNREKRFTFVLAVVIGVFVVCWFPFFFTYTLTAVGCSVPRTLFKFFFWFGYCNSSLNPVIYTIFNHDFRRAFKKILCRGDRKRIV
Nature of the assay: Binding affinity to alpha-2A receptor (unknown origin).

Assay [7] has as its target T5, Alpha-2C adrenergic receptor (Homo sapiens, UniProt P18825).
T5 sequence (P18825 whole entry): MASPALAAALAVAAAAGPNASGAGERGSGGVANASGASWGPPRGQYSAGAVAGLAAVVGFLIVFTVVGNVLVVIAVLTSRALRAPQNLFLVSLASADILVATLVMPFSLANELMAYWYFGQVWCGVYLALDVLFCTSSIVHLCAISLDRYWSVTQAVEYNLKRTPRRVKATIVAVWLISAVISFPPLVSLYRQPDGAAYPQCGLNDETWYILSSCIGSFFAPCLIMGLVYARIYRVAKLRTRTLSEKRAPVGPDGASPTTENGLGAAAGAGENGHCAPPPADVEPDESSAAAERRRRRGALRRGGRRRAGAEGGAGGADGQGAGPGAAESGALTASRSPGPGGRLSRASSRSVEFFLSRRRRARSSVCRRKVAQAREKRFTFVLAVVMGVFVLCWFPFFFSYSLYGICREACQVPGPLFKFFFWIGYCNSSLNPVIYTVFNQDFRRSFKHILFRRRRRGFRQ
The experiment in a line: Binding affinity to alpha-2C receptor (unknown origin).

The next assay concerns Mus musculus. The experiment in a line: Anxiolytic-like activity in iv dosed ICR mouse assessed as increase in marbles left uncovered measured after 30 mins by marble burying assay. The assay is classed as functional. The following applies: 0.5 h.
For assay [8], the species on record is Rattus norvegicus. Nature of the assay: Induction of stimulus generalization in rat trained to discriminate (-)ephedrine assessed as appropriate responding level to training drug by two lever method. It counts as functional.
The species named for assay [9] is Rattus norvegicus. The experiment in a line: Induction of stimulus generalization in rat trained to discriminate S(+)methamphetamine assessed as appropriate responding level to training drug by two lever method. The assay is classed as functional.
Assay [10] deals with 5-hydroxytryptamine receptor 6 (Homo sapiens, UniProt P50406). Nature of the assay: Displacement of [3H]LSD from human 5HT6 receptor expressed in HEK293 cells. It counts as cell-based.
5-hydroxytryptamine receptor 6, sequence (P50406 whole entry): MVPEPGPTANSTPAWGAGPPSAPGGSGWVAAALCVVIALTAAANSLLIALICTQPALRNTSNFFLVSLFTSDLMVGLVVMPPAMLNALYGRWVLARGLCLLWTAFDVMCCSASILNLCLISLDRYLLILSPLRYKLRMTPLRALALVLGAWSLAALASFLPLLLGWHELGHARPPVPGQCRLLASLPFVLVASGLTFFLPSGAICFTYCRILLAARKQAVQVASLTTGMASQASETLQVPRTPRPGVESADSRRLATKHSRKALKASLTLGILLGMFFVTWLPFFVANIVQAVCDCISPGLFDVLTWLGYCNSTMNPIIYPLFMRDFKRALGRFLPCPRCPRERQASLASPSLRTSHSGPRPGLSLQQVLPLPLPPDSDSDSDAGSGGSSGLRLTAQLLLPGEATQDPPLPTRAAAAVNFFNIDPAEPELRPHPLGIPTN
Assay [11] deals with T6, 5-hydroxytryptamine receptor 1A (Homo sapiens, UniProt P08908).
T6 sequence (P08908 whole entry): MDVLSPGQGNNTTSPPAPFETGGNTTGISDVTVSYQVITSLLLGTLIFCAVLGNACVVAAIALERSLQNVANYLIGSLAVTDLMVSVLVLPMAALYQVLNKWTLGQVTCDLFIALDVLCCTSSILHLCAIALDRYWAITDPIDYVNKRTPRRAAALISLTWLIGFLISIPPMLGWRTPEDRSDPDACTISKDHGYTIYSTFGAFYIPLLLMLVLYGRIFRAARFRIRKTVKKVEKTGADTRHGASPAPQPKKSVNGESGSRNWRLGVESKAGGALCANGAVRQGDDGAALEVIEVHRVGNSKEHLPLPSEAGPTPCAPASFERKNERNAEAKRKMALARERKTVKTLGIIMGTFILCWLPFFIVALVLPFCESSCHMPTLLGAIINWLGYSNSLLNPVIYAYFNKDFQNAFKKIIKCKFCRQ
The experiment in a line: Binding affinity to 5-HT1A receptor (unknown origin).

Assay [12] deals with Trace amine-associated receptor 1 (Rattus norvegicus, UniProt Q923Y9). Nature of the assay: Agonist activity at rat N-terminal FLAG-tagged TAAR1 expressed in HEK293 cells assessed as [3H]cAMP accumulation measured after 1 hr. The assay is classed as functional, cell-based.
Trace amine-associated receptor 1, sequence (Q923Y9 whole entry): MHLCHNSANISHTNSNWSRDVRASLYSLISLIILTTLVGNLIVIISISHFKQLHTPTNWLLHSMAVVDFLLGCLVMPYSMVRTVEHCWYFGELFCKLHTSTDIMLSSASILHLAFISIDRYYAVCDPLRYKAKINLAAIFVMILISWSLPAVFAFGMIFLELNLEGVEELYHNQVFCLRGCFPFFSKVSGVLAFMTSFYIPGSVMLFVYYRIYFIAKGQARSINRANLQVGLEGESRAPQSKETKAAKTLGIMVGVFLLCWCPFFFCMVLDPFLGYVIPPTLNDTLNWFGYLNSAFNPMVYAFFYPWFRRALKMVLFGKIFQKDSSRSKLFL
The target of assay [13] is T1, Sodium-dependent dopamine transporter. The experiment in a line: Inhibition of DAT in Sprague-Dawley rat synaptosomes assessed as reduction in [3H]dopamine uptake by liquid scintillation counting method. It counts as subcellular.
Assay [14] has as its target T2, 5-hydroxytryptamine receptor 2A. The experiment in a line: Displacement of [3H]ketanserin from 5HT2A in Sprague-Dawley rat cortex membranes measured after 15 mins. It counts as cell membranes.
For a further assay, the system named is Rhesus monkey. The experiment in a line: In vivo agonist activity at 5HT2A in DOM-trained rhesus monkey assessed as increase in discriminative stimulus administered subcutaneously pretreated before testing. The following applies: Macaca mulatta, sc. It counts as functional.
Assay [15] deals with Rattus norvegicus. The experiment in a line: In vivo agonist activity at 5HT2A in ip dosed DOM-trained Sprague-Dawley rat assessed as increase in discriminative stimulus pretreated before testing. It counts as functional.
Assay [16] concerns the target T2, 5-hydroxytryptamine receptor 2A. Nature of the assay: Displacement of [125I]DOI from rat cortex 5HT2A after 1 hr by beta scintillation counting method.
For assay [17] the target is unchanged. The experiment in a line: Displacement of [125I](+/-)DOI from rat 5HT2A after 1 hr by beta scintillation counting method.
Assay [18] is filed under the species Rattus norvegicus. Nature of the assay: Induction of stimulus generalization in Sprague-Dawley rat trained to discriminate S(-)MCAT assessed as appropriate responding level to training drug by two lever method. It counts as functional.
The species entered for assay [19] is Rattus norvegicus. Nature of the assay: Induction of stimulus generalization in Sprague-Dawley rat trained to discriminate TDIQ assessed as appropriate responding level to training drug by two lever method. The assay is classed as functional.
The species named for assay [20] is Rattus norvegicus. Nature of the assay: Induction of stimulus generalization in Sprague-Dawley rat trained to discriminate S(+)AMPH assessed as appropriate responding level to training drug by two lever method. It counts as functional.
Assay [21] is filed under the species Rattus norvegicus. Nature of the assay: Induction of stimulus generalization in rat trained to discriminate PMMA assessed as appropriate responding level to training drug by two lever method. It counts as functional. To be noted: Rattus norvegicus.

Usually EC50 stands for the concentration giving half of the maximal effect. What is called Ki is the equilibrium dissociation constant of an inhibitor or competing ligand from its target. For orientation: ED50 means the midpoint of the dose-response relation. As usually defined, the IC50 is the point on the concentration scale where inhibition reaches its midpoint.

T2 sequence (P14842 whole entry): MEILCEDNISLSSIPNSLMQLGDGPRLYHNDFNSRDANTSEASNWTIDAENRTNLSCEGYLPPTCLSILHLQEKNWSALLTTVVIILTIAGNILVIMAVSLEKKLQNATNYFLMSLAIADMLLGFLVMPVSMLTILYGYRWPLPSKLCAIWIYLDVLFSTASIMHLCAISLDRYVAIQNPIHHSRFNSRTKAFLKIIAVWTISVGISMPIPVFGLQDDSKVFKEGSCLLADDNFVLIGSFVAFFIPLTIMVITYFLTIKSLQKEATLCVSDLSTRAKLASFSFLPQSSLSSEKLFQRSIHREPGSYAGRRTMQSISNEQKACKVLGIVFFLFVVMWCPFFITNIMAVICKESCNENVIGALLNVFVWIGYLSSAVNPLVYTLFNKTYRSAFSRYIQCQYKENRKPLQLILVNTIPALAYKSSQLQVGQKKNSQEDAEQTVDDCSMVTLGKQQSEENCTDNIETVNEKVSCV
Sodium-dependent serotonin transporter, sequence (P31652 whole entry): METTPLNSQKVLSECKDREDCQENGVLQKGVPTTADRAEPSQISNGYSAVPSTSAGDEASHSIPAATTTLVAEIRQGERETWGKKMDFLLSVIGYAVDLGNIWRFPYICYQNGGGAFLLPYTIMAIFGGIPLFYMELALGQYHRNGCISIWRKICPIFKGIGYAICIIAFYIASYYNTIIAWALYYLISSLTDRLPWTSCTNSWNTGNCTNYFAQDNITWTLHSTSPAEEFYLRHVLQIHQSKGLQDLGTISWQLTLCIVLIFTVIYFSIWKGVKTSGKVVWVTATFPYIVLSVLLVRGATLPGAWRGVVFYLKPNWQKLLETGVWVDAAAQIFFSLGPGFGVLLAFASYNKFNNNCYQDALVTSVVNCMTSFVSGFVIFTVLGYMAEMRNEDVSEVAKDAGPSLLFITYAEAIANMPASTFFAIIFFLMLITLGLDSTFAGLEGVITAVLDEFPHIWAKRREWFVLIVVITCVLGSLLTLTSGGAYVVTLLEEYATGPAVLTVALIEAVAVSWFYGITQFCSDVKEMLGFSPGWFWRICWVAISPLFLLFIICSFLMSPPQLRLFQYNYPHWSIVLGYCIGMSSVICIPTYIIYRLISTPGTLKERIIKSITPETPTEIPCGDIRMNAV

Consider `CN[C@H](C)Cc1ccc2c(c1)OCO2`, for which the EC50 is 0.56 µM in assay [1], 3.7 µM in assay [2] and 0.34 µM in assay [3]. This compound came in with a Ki in [4] of 3.31 µM.

Turning to `c1c2c(cc3c1OCO3)CNCC2`, the Ki in [5], in assay [6] and in assay [7] was under 0.1 µM in each case. Moreover, the ED50 in the assay with Mus musculus came to 0.2 mg/kg.

`CN[C@@H](C)[C@H](O)c1ccccc1` [EPHEDRINE]: the ED50 in the assay listed under Rattus norvegicus [8] amounted to 0.8 mg/kg; in the assay filed under Rattus norvegicus [9], 13.1 mg/kg.

In assay [10], `NCCc1ccc(S(=O)(=O)n2ccc3ccccc32)cc1` returned a Ki of 0.0025 µM.

With `CCCN(CCC)CCc1ccccc1O`, in [11], affinity was put at a Ki of 0.4 µM.

On to `NCCc1ccccc1` [PHENETHYLAMINE], for which the EC50 in [12] worked out at 0.24 µM.

For the compound `CCC[C@@H](C(=O)c1ccc2c(c1)OCO2)N1CCCC1`, the IC50 in assay [13] amounted to 0.0021 µM.

In [14], `COc1cc(CC(C)N(C)C)c(OC)cc1Br` (centres undefined) showed a Ki of 0.38 µM.

Consider `COc1cc(C[C@@H](C)N)c(OC)cc1I`, for which the ED50 in the assay on Rhesus monkey was found to be 0.04 mg/kg; in the assay on Rattus norvegicus [15] it was 0.2 mg/kg.

In the case of `CCCNCCc1ccccc1O`, in assay [11], the Ki was over 1 µM.

For `C[C@H](N)Cn1ncc2ccc3c(c21)CCCO3`, the ED50 in the assay with Rhesus monkey was 0.04 mg/kg; in the assay with Rattus norvegicus [15], 0.05 mg/kg. Further, the affinity in assay [16] corresponds to a Ki of 0.00013 µM.

In assay [17], `COc1cc([C@H](OC)[C@@H](C)N)c(OC)cc1Br` showed a Ki of 0.0174 µM.

Turning to `CN[C@H](C)Cc1ccccc1`, the results for the median effective dose (ED50) in the assay listed under Rattus norvegicus [8] and in the assay listed under Rattus norvegicus [9] were 0.9 mg/kg and 1.61 mg/kg, respectively.

Turning to `COC(=O)[C@H]1[C@@H](OC(=O)c2ccccc2)C[C@@H]2CC[C@H]1N2C` [COCAINE], the 50% effective dose (ED50) in the assay filed under Rattus norvegicus [18] is 1.47 mg/kg; in the assay filed under Rattus norvegicus [19], 1.5 mg/kg; in the assay listed under Rattus norvegicus [9], 3.68 to 6.68 mg/kg; in the assay listed under Rattus norvegicus [20], 5.63 mg/kg.

For the compound `NC1CCc2c(cccc2NS(=O)(=O)c2ccccc2)C1` (centres undefined), the Ki in assay [10] worked out at 0.049 µM.

For `CN[C@@H](C)Cc1ccc2c(c1)OCO2`, the EC50 in [1] amounted to 0.136 µM; in [2] it was 0.142 µM; in [3], 0.074 µM. The ED50 in the assay listed under Rattus norvegicus [21] was 0.48 mg/kg. The Ki in assay [4] worked out at 15.8 µM.
